These results are taken from patent US12384764B2, “Pharmaceutical compounds” (Pfizer Inc., priority 2019, dated 2025).

The structures appear in SMILES notation. pEC50: −log10 of the molar value.

One series relates to RSV A2. The experiment in a line: RSV plaque reduction assay. The series is classed as cell-based. The settings on record: human respiratory syncytial virus, HepG2, 48 h; Hep-G2 cells, RSV A2, 2 days incubation; mean of at least two experiments. Here is the method:
Compounds were subjected to an RSV plaque reduction assay according to the following protocol.
Hep-G2 cells (ECACC, 85011430) were passaged in flasks and seeded in 24-well plates in DMEM containing antibiotics and supplemented with 10% FBS. During inoculation and subsequent incubation, cells were cultured in DMEM containing 2% FBS. 100 plaque forming unit/well of RSV (RSV A2 ECACC, 0709161v) was mixed with eight serial dilutions of compound. Subsequently, 100 μL of the virus/compound mixtures was added to confluent Hep-G2 cell monolayers. The cells and virus/compound mixtures were incubated at 37° C. in a humidified 5% CO2 incubator for 2 h prior to removal of the inoculum and addition of 1 mL of overlay (DMEM containing FBS and 0.8% CMC) containing compound dilutions. The cells and were incubated at 37° C. in a humidified 5% CO2 incubator for 2 days.
Cells were washed with PBS before adding 75/25% v/v EtOH/MeOH, for 3 min. Fixative was removed and plates were washed with PBS. A pre-titrated amount of the primary antibody was added in 200 μL PBS/2% milk powder, and plates incubated for 90 min at 37° C. The plates were washed 3 times with PBS/0.05% Tween20 before addition of rabbit anti-goat horse radish peroxidase in 200 μL PBS/2% milk powder, and incubated for 1 h at 37° C. Following three wash steps with PBS/0.05% Tween20, 200 μL ready-to-use TrueBlue was added and plates were incubated at rt for 10-15 min before washing with water. After removal of water, plates were air-dried in the dark.
Plates were scanned and analysed using the Immunospot S6 Macro analyser, which is equipped with BioSpot analysis software for counting immunostained plaques (virospots). Plaque counts were used to calculate % infection relative to the mean of the plaque count in the virus control wells for RSV. The EC50 value was calculated as 50% reduction in signal, respectively, by interpolation of inhibition curves fitted with a 4-parameter nonlinear regression with a variable slope in Dotmatics. Plaque EC50 and cell toxicity CC50 values are a mean of at least two experiments and figures are rounded to whole units.
A general note: Plaques are areas of infected cells; plaque reduction assays count them against a control.

A short description of a further series: Cell cytotoxicity (CC50). It is filed as cell-based. To be noted: human, Hep-G2 cells; mean of at least two experiments.
Series [1] can be described thus: Liver microsomal stability, human. It is filed as in vitro ADME. To be noted: pooled liver microsomes, pH 7.4; human liver microsomes 0.5 mg/mL, 1 μM compound, NADPH, 37° C.; read-out: Liver Microsomal Stability t½, human. How it is done: (§1) Compounds were subjected to the following assays to investigate liver microsomal stability.
(§2) Microsomal Incubation: Experimental Procedure
(§3) Pooled liver microsomes were purchased from a reputable commercial supplier and stored at −80° C. prior to use. Microsomes (final protein concentration 0.5 mg/mL), 0.1 M phosphate buffer pH 7.4 and test compound (final substrate concentration 1 μM; final DMSO concentration 0.25%) were pre-incubated at 37° C. prior to the addition of NADPH (final concentration 1 mM) to initiate the reaction. The final incubation volume was 50 uL. A control incubation was included for each compound tested where 0.1 M phosphate buffer pH 7.4 was added instead of NADPH (minus NADPH). Two control compounds were included with each species. All incubations were performed singularly for each test compound. Each compound was incubated for 0, 5, 15, 30 and 45 min. The control (minus NADPH) was incubated for 45 min only. The reactions were stopped by transferring incubate into acetonitrile at the appropriate time points, in a 1:3 ratio. The termination plates are centrifuged at 3,000 rpm for 20 min at 4° C. to precipitate the protein. Following protein precipitation, the sample supernatants were combined in cassettes of up to 4 compounds, internal standard added, and samples analysed by LC-MS/MS. From a plot of ln peak area ratio (compound peak area/internal standard peak area) against time, the gradient of the line was determined. Subsequently, half-life (t1/2) and intrinsic clearance (CLint) were calculated.
A general note: Liver microsomes are a subcellular fraction often used to study metabolism.

Series [2] can be described thus: Liver microsomal stability, dog. It is filed as in vitro ADME. To be noted: pooled liver microsomes, pH 7.4; dog liver microsomes 0.5 mg/mL, 1 μM compound, NADPH, 37° C.; read-out: Liver Microsomal Stability t½, dog. Here is the method:
as §1, §2, §3

The nature of series [3]: Liver microsomal stability, rat. It is filed as in vitro ADME. To be noted: pooled liver microsomes, pH 7.4; rat liver microsomes 0.5 mg/mL, 1 μM compound, NADPH, 37° C.; read-out: Liver Microsomal Stability t½, rat. Here is the method: as §1, §2, §3
Another series relates to RSV. To be noted: Antimicrobial Agents and Chemotherapy, September 2007, 3346-3353; cited from earlier work.

In the case of `O=C(N[C@H]1N=C(c2ccccc2)c2cccc(F)c2NC1=O)c1cnn(C2COC2)c1Oc1c(F)cc(Cl)cc1F` [Example 5, 5-(4-Chloro-2,6-difluorophenoxy)-N-[(3S)-9-fluoro-2-oxo-5-phenyl-1,3-dihydro-1,4-benzodiazepin-3-yl]-1-(oxetan-3-yl)pyrazole-4-carboxamide], the negative logarithm of the EC50 (pEC50) – broadly, the EC50 on a negative log10 scale, so that one unit is a factor of ten – in the series on RSV A2 is 7.13. Also, the CC50 (as a rule, the concentration at which the toxic effect on the cells reaches its halfway point) at 2 days in the series “Cell cytotoxicity (CC50)” is > 25000 nM. In addition, the half-life at 1 μM was determined as 15.8 min in series [1], 174 min in series [2] and 42.3 min in series [3].
For `CCn1ncc(C(=O)N[C@H]2N=C(c3ccccc3)c3ccccc3NC2=O)c1Oc1c(F)cc(C)cc1F` [Example 1, 5-(2,6-Difluoro-4-methylphenoxy)-1-ethyl-N-[(3S)-2-oxo-5-phenyl-1,3-dihydro-1,4-benzodiazepin-3-yl]pyrazole-4-carboxamide] the same measures were 7.04, > 25000 nM, 36 min, 38.6 min and 5 min.
Regarding `O=C(Nc1ccccc1F)N[C@H]1N=C(c2ccccc2)c2ccccc2NC1=O` [RSV604], the anti-RSV activity entry in the series on RSV was “sub-micromolar”.
As for `O=C(N[C@H]1N=C(c2ccccc2)c2cccc(F)c2NC1=O)c1cnn(C2COC2)c1Oc1ccc(Cl)cc1F` [Example 3, 5-(4-Chloro-2-fluorophenoxy)-N-[(3S)-9-fluoro-2-oxo-5-phenyl-1,3-dihydro-1,4-benzodiazepin-3-yl]-1-(oxetan-3-yl)pyrazole-4-carboxamide], the negative-log EC50 (pEC50) in the series with RSV A2 is 7.15. In addition, the CC50 at 2 days in “Cell cytotoxicity (CC50)” is > 25000 nM. Moreover, the figures for the half-life at 1 μM in series [1], in series [2] and in series [3] were 24.5 min, 140 min and 38.3 min, respectively.
In the series with RSV A2, `Cc1ccc(Oc2c(C(=O)N[C@H]3N=C(c4ccccc4)c4ccccc4NC3=O)cnn2C2CCOCC2)c(F)c1` [Example 2, 5-(2-Fluoro-4-methylphenoxy)-1-(oxan-4-yl)-N-[(3S)-2-oxo-5-phenyl-1,3-dihydro-1,4-benzodiazepin-3-yl]pyrazole-4-carboxamide] had a pEC50 of 7.05. For the same molecule, the CC50 at 2 days in the series “Cell cytotoxicity (CC50)” was > 25000 nM.
In the same order, the values of `O=C(N[C@H]1N=C(c2ccccc2)c2cccc(F)c2NC1=O)c1cnn(C2CCOCC2)c1Oc1c(F)cc(Cl)cc1F` [Example 6, 5-(4-Chloro-2,6-difluorophenoxy)-N-[(3S)-9-fluoro-2-oxo-5-phenyl-1,3-dihydro-1,4-benzodiazepin-3-yl]-1-(oxan-4-yl)pyrazole-4-carboxamide] are 7.26 and > 25000 nM.
As for `O=C(N[C@H]1N=C(c2ccccc2)c2cccc(F)c2NC1=O)c1cnn(C2CCOCC2)c1Oc1ccc(Cl)cc1F` [Example 4, 5-(4-Chloro-2-fluorophenoxy)-N-[(3S)-9-fluoro-2-oxo-5-phenyl-1,3-dihydro-1,4-benzodiazepin-3-yl]-1-(oxan-4-yl)pyrazole-4-carboxamide], the pEC50 in the series on RSV A2 is 7.17. Also, the CC50 at 2 days in “Cell cytotoxicity (CC50)” was > 25000 nM. In addition, the half-life at 1 μM in series [1] stood at 38.8 min; in series [2] it was 117 min; in series [3], 19.7 min.
